Assay results as given in the supplement of paper PMC8988213.
Where a name gives a salt, the structure may show the parent alone.

Assays:
[1] = test system: ID188 patient-derived PDAC 2D line (pre-FOLFIRINOX); assay: normalised area under dose-response curve (viability relative to DMSO, 7 doses up to 10 µM) (fraction (AUC)); higher = less sensitive (more viability retained); details: 72 h; top dose: 10 µM
Summary of the method: (§1)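 A robot plated 1,500–3,000 cells/well of patient-derived 2D PDAC cells, outgrown from organoids, into 96-well plates, followed by overnight incubation at 37°C, 5% CO2. The cells were exposed for 72 h to SelleckChem library compounds at seven 3-fold-diluted concentrations up to 10 µM, and CellTiter-Glo luminescence was read after 10 min. Area under the dose-response curve came from the GRmetrics R package, with viability normalised to control wells.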

[2] = test system: ID211 patient-derived PDAC 2D line (post-FOLFIRINOX); assay: as above; details: 72 h; top dose: 10 µM
Summary of the method: as §1

Structure (SMILES)	normalised area under dose-response curve [1]	normalised area under dose-response curve [2]
COc1ccc(-c2cc3nccn3c(Nc3ncccc3C(N)=O)n2)cc1OC [BAY-61-3606]	0.871	0.79
Cc1c(NC(=O)c2cc(C(N)=O)nc3cc(F)ccc23)c(C(F)(F)F)nn1Cc1ccc(C#N)cc1 [BAY-876]	0.826	0.718
O=c1[nH]nc(Sc2ncc([N+](=O)[O-])s2)n1-c1ccc2c(c1)OCCO2 [BI-78D3]	0.965	0.811
CC(C)CCN1c2nc(Nc3cc(F)c(O)c(F)c3)ncc2N(C)C(=O)C1C (stereo not given) [BI-D1870]	0.925	0.876
CNC(=O)c1cc(Oc2ccc3nc(N[C@@H]4CCCC[C@H]4O)sc3c2)ccn1 [BLZ945]	0.905	0.914
COc1ccc2c(c1)c(CC(=O)N1CCOCC1)c(C)n2C(=O)c1ccc(Cl)cc1 [BML-190]	0.958	1.01
COc1nc(OCc2cccc(-c3ccccc3)c2C)ccc1CNCCNC(C)=O [BMS202 (PD-1PD-L1 inhibitor 2)]	0.99	0.905
O=C(Cc1ccccc1)Nc1nnc(CCSCCc2nnc(NC(=O)Cc3ccccc3)s2)s1 [BPTES]	0.861	0.854
Cc1nn(C)c2c1C(c1ccc(C(F)(F)F)cc1)C(C#N)=C(N)O2 (stereo not given) [BQU57]	0.933	0.869
COC(=O)c1ccc2c(c1)nc(NC(=O)c1ccccc1)n2CCCc1ccccc1 [BRD4770]	0.887	0.836
O=C(NCCCNc1nc(Nc2cccc(NC(=O)N3CCCC3)c2)ncc1I)c1cccs1 [BX-795]	0.885	0.883
O=C(Nc1cccc(Nc2ncc(Br)c(NCCc3cnc[nH]3)n2)c1)N1CCCC1 [BX-912]	0.595	0.893
Cc1ccc(NC(=O)c2ccc(CN3CC[C@H](N(C)C)C3)c(C(F)(F)F)c2)cc1Nc1nccc(-c2cncnc2)n1 [Bafetinib (INNO-406)]	0.906	0.841
CC[C@H](NC(=O)[C@H](C)NC)C(=O)N1C[C@@H](O)C[C@H]1Cc1c(-c2[nH]c3cc(F)ccc3c2C[C@@H]2C[C@H](O)CN2C(=O)[C@H](CC)NC(=O)[C@H](C)NC)[nH]c2cc(F)ccc12 [Birinapant]	0.315	1.02
Cn1cc(C2=C(c3cn(CCCSC(=N)N)c4ccccc34)C(=O)NC2=O)c2ccccc21 [Bisindolylmaleimide IX (Ro 31-8220 Mesylate)]	0.942	0.788
O=C(O)C(=O)CBr [Bromopyruvic acid]	0.992	0.834
CCOC(=O)Nc1cc(-c2ccc(C)c(NS(C)(=O)=O)c2)nn2c(C)nnc12 [Bromosporine]	0.878	0.801
CS(=O)(=O)OCCCCOS(C)(=O)=O [Busulfan]	0.948	0.814
Clc1ccc(C(c2c[nH]c3ccccc23)c2c[nH]c3ccccc23)cc1 [C-DIM12]	0.92	0.897
O=C(Cc1cccc(OC(F)(F)F)c1)Nc1ccc(CCCCc2nnc(NC(=O)Cc3ccccn3)s2)nn1 [CB-839]	0.596	0.597
Cc1cc2c(C(N)=O)cccc2n1-c1nc2c(c(NCc3ccccc3)n1)COCC2 [CB-5083]	1.01	0.643
CCN1C(=O)CNc2ncc(-c3ccc(-c4nc[nH]n4)nc3C)nc21 [CC-115]	0.718	0.7
COc1ccc(N2C(=O)/C(=C\c3ccc([N+](=O)[O-])s3)SC2=S)cc1 [CCF642]	0.746	0.874

Structure (SMILES)	normalised area under dose-response curve [1]	normalised area under dose-response curve [2]
CCS(=O)(=O)N1CCC([C@@H](C)n2c(C)c(C(=O)NCc3c(OC)cc(C)[nH]c3=O)c3ccccc32)CC1 [CPI-169]	0.924	0.874
Cc1sc2c(c1C)C(c1ccc(Cl)cc1)=N[C@@H](CC(N)=O)c1nnc(C)n1-2 [CPI-203]	0.877	0.597
CC(C)c1c(-c2ccccc2)nc2c(C#N)c[nH]n2c1=O [CPI-455 HCl]	0.972	0.898
O=C(O)CCCCC(CCSCc1ccccc1)SCc1ccccc1 (stereo not given) [CPI-613]	0.897	0.902
C#Cc1cccc(Nc2ncnc3cc(OC)c(OCCCCCCC(=O)NO)cc23)c1 [CUDC-101]	0.827	0.765
O=C(O)c1cc(I)ccc1NC(=O)[C@H](Cc1ccccc1)NCc1ccccc1 [CW069]	0.937	0.842
COc1cc2nccc(Oc3ccc(NC(=O)C4(C(=O)Nc5ccc(F)cc5)CC4)cc3)c2cc1OC [Cabozantinib malate (XL184)]	0.585	0.78
CC(C)C[C@H](NC(=O)[C@H](CCc1ccccc1)NC(=O)CN1CCOCC1)C(=O)N[C@@H](Cc1ccccc1)C(=O)N[C@@H](CC(C)C)C(=O)[C@@]1(C)CO1 [Carfilzomib (PR-171)]	0.126	0.0368
COc1cc2c(Oc3ccc4[nH]c(C)cc4c3F)ncnc2cc1OCCCN1CCCC1 [Cediranib (AZD2171)]	0.927	0.83
Cc1ccc(-c2cc(C(F)(F)F)nn2-c2ccc(S(N)(=O)=O)cc2)cc1 [Celecoxib]	0.935	0.892
Cc1cc(Nc2ncc(Cl)c(Nc3ccccc3S(=O)(=O)C(C)C)n2)c(OC(C)C)cc1C1CCNCC1 [Ceritinib (LDK378)]	0.823	0.685
CN1C(=O)[C@@]23C[C@]4([C@]56C[C@@]78SS[C@@](CO)(C(=O)N7[C@H]5Nc5ccccc56)N(C)C8=O)c5ccccc5N[C@@H]4N2C(=O)[C@]1(CO)SS3 [Chaetocin]	0.192	0.0212
NC(=O)c1ccc2nc(-c3ccc(Oc4ccc(Cl)cc4)cc3)[nH]c2c1 [Chk2 Inhibitor II (BML-277)]	0.967	0.865
N.N.[Cl][Pt][Cl] [Cisplatin]	0.95	0.86
O=C(c1ccc(F)c(F)c1Nc1ccc(I)cc1F)N1CC(O)([C@@H]2CCCCN2)C1 [Cobimetinib (GDC-0973, RG7420)]	0.639	0.26
COc1cc2c(c(OC)c1OC)-c1ccc(OC)c(=O)cc1[C@@H](NC(C)=O)CC2 [Colchicine]	0.562	0.589
O=P1(N(CCCl)CCCl)NCCCO1 (stereo not given) [Cyclophosphamide Monohydrate]	0.927	0.899
Nc1cccc(S(=O)(=O)N2CCCN(S(=O)(=O)c3ccc4c(c3)OCCO4)CC2)c1 [DASA-58]	0.918	0.808
CCN1CCN(Cc2ccc(C(=O)Nc3ccc(C)c(Oc4ccc5c(c4)CC(=O)N5)c3)cc2C(F)(F)F)CC1 [DDR1-IN-1]	0.934	0.908
CCOc1ccc(Cc2cc([C@@H]3O[C@H](CO)[C@@H](O)[C@H](O)[C@H]3O)ccc2Cl)cc1 [Dapagliflozin]	0.943	0.913
Cc1nc(Nc2ncc(C(=O)Nc3c(C)cccc3Cl)s2)cc(N2CCN(CCO)CC2)n1 [Dasatinib hydrochloride]	0.377	0.468
Nc1ncn([C@H]2C[C@H](O)[C@@H](CO)O2)c(=O)n1 [Decitabine]	0.909	0.82
